From PMC11233931, “Remodeling tumor‐associated macrophage for anti‐cancer effects by rational design of irreversible inhibition of mitogen‐activated protein kinase‐activated protein kinase 2” (MedComm, 2024)

Tests used:
Experiment in all cases: Eurofins kinase selectivity profile against 380 other human recombinant kinases (Table S2)
Assay type in all cases: biochemical
[1] = target: T1, 380 human recombinant protein kinases (Homo sapiens, UniProt P36507); details: MEK2(h), read-out: Inhibition rate
T1 construct: purchased Eurofins (Celle Lévescault)
T1 sequence (P36507 whole entry): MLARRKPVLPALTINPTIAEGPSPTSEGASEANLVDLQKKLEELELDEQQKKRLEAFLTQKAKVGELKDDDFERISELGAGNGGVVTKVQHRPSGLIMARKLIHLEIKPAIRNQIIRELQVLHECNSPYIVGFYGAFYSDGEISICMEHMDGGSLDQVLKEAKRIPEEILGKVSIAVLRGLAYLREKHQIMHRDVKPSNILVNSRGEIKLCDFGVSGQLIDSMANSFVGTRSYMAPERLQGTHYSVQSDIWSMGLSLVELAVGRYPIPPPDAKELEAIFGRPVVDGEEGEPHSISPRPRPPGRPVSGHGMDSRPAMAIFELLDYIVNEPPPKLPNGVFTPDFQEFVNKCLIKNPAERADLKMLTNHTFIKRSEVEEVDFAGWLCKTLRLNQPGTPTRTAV
Summary of the method: (§1)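 Commercial selectivity screen of the test compound against a panel of 380 human recombinant protein kinases, run by an outside contractor at several compound concentrations to check whether its potency was specific for MK2.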

[2] = target: T2, 380 human recombinant protein kinases (Homo sapiens, UniProt Q9NSY1); details: BIKe(h), read-out: Inhibition rate
T2 construct: purchased Eurofins (Celle Lévescault)
T2 sequence (Q9NSY1 whole entry): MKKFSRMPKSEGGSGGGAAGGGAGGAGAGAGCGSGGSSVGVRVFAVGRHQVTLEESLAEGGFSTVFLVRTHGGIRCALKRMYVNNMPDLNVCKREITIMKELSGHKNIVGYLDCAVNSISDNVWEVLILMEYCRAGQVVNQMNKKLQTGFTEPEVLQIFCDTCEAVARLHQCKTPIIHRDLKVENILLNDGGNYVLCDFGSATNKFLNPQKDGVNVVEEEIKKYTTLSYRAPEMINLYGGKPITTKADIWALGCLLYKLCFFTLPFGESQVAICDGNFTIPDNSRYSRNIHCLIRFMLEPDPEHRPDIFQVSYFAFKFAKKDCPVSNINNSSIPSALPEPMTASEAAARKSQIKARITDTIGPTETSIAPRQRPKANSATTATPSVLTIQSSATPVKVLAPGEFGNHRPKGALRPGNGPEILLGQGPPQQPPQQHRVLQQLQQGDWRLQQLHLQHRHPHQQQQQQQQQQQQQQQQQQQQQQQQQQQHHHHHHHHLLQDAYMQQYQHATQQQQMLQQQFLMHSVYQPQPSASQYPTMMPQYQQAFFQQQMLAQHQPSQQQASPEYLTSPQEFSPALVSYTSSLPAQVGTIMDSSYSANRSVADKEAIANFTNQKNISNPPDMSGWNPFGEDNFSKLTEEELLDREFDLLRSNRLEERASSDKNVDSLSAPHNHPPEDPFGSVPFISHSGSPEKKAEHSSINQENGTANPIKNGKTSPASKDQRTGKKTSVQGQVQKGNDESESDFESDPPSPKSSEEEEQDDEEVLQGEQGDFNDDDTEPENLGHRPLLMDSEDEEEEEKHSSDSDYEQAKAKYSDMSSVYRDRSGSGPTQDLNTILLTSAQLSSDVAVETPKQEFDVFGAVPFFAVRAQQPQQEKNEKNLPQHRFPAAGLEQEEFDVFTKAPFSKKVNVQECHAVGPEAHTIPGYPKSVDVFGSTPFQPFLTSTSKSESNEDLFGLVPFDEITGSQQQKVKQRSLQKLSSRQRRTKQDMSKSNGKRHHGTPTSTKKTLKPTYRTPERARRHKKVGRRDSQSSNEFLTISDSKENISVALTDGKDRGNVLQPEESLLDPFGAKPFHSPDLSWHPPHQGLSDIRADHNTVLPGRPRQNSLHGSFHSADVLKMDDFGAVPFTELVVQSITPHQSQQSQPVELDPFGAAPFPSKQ
Summary of the method: as §1

[3] = target: T3, 380 human recombinant protein kinases (Homo sapiens, UniProt P54646); details: AMPKα2(h), read-out: Inhibition rate
T3 construct: purchased Eurofins (Celle Lévescault)
T3 sequence (P54646 whole entry): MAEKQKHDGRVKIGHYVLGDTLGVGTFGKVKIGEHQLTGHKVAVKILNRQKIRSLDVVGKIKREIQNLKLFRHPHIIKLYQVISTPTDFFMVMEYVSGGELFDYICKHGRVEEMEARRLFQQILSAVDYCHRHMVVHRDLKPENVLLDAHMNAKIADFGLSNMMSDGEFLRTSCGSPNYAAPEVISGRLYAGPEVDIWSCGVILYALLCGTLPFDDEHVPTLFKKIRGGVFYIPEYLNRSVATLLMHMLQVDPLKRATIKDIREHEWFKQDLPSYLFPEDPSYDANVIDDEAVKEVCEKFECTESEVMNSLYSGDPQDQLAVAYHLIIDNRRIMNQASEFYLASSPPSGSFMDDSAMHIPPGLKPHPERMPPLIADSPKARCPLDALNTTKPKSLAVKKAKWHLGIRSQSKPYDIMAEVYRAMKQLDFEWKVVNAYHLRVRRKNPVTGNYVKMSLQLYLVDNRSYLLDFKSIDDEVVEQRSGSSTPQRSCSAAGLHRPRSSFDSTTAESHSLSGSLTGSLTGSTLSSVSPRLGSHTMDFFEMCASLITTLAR
Summary of the method: as §1

[4] = target: T4, 380 human recombinant protein kinases (Homo sapiens, UniProt Q8WXR4); details: MYO3B(h), read-out: Inhibition rate
T4 construct: purchased Eurofins (Celle Lévescault)
T4 sequence (Q8WXR4 1-1341): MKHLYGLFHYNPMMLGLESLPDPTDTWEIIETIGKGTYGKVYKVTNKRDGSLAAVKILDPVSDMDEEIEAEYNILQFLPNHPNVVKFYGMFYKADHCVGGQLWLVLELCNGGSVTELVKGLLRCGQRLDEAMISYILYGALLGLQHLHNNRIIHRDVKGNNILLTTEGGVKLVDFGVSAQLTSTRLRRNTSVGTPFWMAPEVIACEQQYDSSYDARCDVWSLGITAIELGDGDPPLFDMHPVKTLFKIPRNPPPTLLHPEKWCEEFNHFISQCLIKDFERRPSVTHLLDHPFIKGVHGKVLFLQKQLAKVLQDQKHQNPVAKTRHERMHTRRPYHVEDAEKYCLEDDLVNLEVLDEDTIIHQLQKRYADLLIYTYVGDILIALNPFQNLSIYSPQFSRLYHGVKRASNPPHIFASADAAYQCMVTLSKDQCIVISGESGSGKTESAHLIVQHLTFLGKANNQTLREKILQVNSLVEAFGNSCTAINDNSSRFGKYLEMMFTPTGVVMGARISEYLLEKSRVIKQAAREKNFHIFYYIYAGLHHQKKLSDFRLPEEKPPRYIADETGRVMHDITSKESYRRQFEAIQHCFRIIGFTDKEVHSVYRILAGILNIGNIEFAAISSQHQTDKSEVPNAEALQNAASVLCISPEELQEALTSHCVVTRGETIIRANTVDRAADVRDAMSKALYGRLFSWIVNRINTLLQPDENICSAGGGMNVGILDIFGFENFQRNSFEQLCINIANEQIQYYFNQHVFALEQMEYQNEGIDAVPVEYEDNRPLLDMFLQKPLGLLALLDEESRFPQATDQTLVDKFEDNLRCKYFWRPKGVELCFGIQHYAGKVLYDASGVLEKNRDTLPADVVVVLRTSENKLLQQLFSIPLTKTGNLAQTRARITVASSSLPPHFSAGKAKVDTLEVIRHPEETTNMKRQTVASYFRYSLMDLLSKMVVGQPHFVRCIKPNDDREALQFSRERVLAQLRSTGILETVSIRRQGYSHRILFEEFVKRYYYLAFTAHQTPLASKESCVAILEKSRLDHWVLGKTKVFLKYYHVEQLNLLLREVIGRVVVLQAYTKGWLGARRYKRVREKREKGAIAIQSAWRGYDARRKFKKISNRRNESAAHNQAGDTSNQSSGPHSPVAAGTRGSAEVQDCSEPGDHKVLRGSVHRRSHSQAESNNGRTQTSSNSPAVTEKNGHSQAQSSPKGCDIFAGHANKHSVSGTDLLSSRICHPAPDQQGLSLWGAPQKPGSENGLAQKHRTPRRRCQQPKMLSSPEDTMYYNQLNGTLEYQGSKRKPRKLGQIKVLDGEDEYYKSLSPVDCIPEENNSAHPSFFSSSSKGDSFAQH
Summary of the method: as §1

[5] = target: T5, 380 human recombinant protein kinases (Homo sapiens, UniProt Q14012); details: CaMKI(h), read-out: Inhibition rate
T5 construct: purchased Eurofins (Celle Lévescault)
T5 sequence (Q14012 whole entry): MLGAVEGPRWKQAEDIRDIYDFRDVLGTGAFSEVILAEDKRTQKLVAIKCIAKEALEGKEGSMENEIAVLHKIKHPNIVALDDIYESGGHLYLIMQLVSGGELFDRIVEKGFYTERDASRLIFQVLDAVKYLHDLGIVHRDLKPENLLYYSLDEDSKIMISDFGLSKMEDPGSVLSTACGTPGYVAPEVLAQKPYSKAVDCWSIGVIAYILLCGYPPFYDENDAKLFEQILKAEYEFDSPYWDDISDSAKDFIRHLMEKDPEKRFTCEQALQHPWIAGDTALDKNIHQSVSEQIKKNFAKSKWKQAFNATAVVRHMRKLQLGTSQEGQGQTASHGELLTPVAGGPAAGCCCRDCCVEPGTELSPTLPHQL
Summary of the method: as §1

[6] = target: T6, 380 human recombinant protein kinases (Homo sapiens, UniProt Q9NYY3); details: Snk(h), read-out: Inhibition rate (%)
T6 construct: purchased Eurofins (Celle Lévescault)
T6 sequence (Q9NYY3 whole entry): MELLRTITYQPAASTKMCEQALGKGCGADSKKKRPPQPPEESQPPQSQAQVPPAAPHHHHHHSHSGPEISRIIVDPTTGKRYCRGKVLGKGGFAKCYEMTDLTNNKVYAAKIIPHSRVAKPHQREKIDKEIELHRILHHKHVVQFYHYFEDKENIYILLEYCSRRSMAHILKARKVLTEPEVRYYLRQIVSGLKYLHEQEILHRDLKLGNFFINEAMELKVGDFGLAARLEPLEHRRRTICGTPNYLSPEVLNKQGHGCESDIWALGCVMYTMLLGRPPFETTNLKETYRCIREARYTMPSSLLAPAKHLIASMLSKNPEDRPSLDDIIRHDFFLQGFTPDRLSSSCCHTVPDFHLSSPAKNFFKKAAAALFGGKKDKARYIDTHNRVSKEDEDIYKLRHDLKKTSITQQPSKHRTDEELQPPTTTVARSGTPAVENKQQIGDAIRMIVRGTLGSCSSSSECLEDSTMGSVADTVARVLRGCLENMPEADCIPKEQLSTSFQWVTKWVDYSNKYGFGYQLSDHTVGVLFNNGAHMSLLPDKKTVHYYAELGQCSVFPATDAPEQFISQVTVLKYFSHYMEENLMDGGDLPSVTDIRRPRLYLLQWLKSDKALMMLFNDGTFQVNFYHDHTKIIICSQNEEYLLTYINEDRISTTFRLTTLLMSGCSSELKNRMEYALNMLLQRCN
Summary of the method: as §1

[7] = target: T7, 380 human recombinant protein kinases (Homo sapiens, UniProt P51812); details: Rsk2(h), read-out: Inhibition rate (%)
T7 construct: purchased Eurofins (Celle Lévescault)
T7 sequence (P51812 whole entry): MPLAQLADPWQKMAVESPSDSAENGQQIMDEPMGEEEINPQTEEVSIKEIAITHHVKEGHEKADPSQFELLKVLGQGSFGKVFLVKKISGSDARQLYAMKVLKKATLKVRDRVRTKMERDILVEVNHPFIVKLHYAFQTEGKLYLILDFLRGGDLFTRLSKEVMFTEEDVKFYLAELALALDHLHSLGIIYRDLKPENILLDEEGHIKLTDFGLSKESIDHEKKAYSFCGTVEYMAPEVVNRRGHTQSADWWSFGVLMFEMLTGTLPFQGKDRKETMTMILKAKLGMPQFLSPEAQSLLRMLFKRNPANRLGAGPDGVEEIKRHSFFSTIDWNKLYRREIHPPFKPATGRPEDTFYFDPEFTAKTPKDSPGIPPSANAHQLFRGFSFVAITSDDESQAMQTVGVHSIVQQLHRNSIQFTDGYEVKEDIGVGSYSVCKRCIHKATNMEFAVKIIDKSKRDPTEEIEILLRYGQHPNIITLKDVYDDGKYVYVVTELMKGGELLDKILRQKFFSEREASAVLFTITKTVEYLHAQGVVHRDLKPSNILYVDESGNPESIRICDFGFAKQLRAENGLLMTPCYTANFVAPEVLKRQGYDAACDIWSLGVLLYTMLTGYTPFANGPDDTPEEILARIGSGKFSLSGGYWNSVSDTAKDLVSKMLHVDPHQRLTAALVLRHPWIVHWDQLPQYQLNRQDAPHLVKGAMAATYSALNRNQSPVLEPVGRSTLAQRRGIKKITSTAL
Summary of the method: as §1

[8] = target: T8, 380 human recombinant protein kinases (Homo sapiens, UniProt P49759); details: CLK1(h), read-out: Inhibition rate
T8 construct: purchased Eurofins (Celle Lévescault)
T8 sequence (P49759 whole entry): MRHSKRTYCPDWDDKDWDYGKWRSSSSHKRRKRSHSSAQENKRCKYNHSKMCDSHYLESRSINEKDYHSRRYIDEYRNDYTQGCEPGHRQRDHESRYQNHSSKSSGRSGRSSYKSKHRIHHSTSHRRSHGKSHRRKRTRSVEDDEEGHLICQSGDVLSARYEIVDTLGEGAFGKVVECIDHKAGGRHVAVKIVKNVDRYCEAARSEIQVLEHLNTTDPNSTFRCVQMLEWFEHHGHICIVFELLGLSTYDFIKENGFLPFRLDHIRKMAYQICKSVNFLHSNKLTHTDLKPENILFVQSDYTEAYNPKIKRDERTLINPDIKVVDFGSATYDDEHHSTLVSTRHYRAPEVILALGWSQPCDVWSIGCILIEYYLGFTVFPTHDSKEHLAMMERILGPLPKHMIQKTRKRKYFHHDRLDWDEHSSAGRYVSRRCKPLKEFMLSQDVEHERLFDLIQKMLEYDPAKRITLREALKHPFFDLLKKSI
Summary of the method: as §1

C=CC(=O)Nc1cc(-c2cc(-c3cc4c([nH]3)CCNC4=O)ccn2)ccc1OC(F)(F)F [compound 11]
inhibition at 0.01 µM ([1]; 10 nM): -4%
inhibition at 0.1 µM ([1]; 100 nM): 4%
inhibition at 1 µM ([1]; 1000 nM): 6%
inhibition at 0.01 µM ([2]; 10 nM): 0%
inhibition at 0.1 µM ([2]; 100 nM): 18%
inhibition at 1 µM ([2]; 1000 nM): 48%
inhibition at 0.01 µM ([3]; 10 nM): 3%
inhibition at 0.1 µM ([3]; 100 nM): 11%
inhibition at 1 µM ([3]; 1000 nM): 43%
inhibition at 0.01 µM ([4]; 10 nM): 3%
inhibition at 0.1 µM ([4]; 100 nM): 4%
inhibition at 1 µM ([4]; 1000 nM): 16%
inhibition at 0.01 µM ([5]; 10 nM): -3%
inhibition at 0.1 µM ([5]; 100 nM): -3%
inhibition at 1 µM ([5]; 1000 nM): -6%
inhibition at 0.01 µM ([6]; 10 nM): 0%
inhibition at 0.1 µM ([6]; 100 nM): 10%
inhibition at 1 µM ([6]; 1000 nM): 15%
inhibition at 0.01 µM ([7]; 10 nM): -6%
inhibition at 0.1 µM ([7]; 100 nM): -11%
inhibition at 1 µM ([7]; 1000 nM): -3%
inhibition at 0.01 µM ([8]; 10 nM): -7%
inhibition at 0.1 µM ([8]; 100 nM): 12%
inhibition at 1 µM ([8]; 1000 nM): 70%
